ChEMBL document CHEMBL5291721, “A preclinical secondary pharmacology resource illuminates target-adverse drug reaction associations of marketed drugs” (Nat Commun, 2023)

Key:
[1] = target: T1, Mu-type opioid receptor (Homo sapiens, UniProt P35372)
[2] = target: T2, Alpha-1A adrenergic receptor (Homo sapiens, UniProt P35348)
T2 sequence (P35348 whole entry): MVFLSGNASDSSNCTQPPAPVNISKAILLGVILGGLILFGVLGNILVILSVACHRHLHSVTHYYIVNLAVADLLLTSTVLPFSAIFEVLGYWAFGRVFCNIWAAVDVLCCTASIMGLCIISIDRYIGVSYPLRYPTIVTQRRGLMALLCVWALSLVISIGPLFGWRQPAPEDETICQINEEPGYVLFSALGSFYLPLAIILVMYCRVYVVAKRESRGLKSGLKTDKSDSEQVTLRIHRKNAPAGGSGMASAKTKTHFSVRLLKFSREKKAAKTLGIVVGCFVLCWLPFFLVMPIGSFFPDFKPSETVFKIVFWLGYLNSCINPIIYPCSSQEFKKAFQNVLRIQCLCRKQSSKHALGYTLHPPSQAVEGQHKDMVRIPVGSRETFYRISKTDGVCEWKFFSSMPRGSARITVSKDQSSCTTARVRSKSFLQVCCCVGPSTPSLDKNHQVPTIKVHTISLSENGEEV

[3] = target: Neuronal acetylcholine receptor subunit alpha-4 (Homo sapiens, UniProt P43681)
Chain of Neuronal acetylcholine receptor subunit alpha-4 (P43681 whole entry): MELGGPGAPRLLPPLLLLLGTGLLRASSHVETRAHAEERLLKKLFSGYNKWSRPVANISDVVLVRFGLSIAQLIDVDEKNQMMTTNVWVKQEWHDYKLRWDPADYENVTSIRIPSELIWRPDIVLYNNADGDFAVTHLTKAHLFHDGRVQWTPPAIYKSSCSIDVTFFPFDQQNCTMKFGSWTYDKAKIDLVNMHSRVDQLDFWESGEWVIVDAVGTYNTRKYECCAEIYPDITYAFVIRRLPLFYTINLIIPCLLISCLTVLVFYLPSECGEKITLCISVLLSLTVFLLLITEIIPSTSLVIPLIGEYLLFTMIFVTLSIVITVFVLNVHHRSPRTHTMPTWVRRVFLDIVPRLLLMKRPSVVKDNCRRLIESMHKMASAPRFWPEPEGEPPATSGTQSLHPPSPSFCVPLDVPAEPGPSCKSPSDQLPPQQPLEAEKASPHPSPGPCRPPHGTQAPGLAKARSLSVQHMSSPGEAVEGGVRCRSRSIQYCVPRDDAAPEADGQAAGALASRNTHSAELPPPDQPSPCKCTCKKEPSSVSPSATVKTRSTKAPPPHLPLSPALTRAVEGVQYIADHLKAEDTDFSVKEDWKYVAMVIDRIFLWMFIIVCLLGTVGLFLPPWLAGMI

[4] = target: T3, Adenosine receptor A1 (Homo sapiens, UniProt P30542)
T3 sequence (P30542 whole entry): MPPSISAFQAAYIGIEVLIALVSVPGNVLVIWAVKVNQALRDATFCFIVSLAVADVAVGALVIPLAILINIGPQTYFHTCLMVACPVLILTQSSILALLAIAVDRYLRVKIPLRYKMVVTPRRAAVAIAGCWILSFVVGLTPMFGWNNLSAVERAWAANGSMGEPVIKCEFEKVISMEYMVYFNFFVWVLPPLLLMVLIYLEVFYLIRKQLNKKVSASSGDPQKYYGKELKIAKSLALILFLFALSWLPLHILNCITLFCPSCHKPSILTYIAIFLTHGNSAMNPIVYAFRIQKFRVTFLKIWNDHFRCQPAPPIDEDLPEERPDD

[5] = target: Beta-2 adrenergic receptor (Homo sapiens, UniProt P07550)
[6] = target: T2, Alpha-1A adrenergic receptor; remark: listed apart in the source
[7] = target: D(1A) dopamine receptor (Homo sapiens, UniProt P21728)
Chain of D(1A) dopamine receptor (P21728 whole entry): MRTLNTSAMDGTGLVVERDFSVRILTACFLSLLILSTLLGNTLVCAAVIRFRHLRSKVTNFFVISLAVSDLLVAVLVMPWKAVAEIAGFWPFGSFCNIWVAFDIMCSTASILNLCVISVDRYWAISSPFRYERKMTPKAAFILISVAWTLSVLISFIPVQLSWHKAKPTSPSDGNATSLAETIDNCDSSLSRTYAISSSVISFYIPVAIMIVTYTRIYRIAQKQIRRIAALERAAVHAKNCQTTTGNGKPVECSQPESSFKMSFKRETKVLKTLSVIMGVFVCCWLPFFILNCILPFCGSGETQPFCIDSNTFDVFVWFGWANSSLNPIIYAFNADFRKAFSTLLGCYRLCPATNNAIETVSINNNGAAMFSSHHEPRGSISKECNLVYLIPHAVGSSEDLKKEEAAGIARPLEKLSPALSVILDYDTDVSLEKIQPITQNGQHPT

[8] = target: Muscarinic acetylcholine receptor M3 (Homo sapiens, UniProt P20309)
Chain of Muscarinic acetylcholine receptor M3 (P20309 whole entry): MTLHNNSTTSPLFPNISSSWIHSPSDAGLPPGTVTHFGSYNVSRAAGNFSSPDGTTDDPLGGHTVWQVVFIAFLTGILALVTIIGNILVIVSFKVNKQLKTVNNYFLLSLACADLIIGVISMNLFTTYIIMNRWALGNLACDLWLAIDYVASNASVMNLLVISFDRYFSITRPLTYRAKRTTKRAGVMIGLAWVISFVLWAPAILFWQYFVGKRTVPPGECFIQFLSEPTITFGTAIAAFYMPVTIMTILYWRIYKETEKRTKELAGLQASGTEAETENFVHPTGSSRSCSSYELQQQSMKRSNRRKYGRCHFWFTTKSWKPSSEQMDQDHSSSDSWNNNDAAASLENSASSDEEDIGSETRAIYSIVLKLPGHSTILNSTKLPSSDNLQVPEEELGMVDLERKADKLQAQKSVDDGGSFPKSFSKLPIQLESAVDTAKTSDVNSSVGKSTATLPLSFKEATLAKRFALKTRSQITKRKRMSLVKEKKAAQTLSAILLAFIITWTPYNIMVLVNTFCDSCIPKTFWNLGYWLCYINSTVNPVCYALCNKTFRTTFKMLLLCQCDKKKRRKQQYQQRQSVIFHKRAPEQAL

[9] = target: T1, Mu-type opioid receptor; experiment: biochemical; assay type: functional
[10] = target: 5-hydroxytryptamine receptor 2A (Homo sapiens, UniProt P28223); assay type: functional, cell-based
Chain of 5-hydroxytryptamine receptor 2A (P28223 whole entry): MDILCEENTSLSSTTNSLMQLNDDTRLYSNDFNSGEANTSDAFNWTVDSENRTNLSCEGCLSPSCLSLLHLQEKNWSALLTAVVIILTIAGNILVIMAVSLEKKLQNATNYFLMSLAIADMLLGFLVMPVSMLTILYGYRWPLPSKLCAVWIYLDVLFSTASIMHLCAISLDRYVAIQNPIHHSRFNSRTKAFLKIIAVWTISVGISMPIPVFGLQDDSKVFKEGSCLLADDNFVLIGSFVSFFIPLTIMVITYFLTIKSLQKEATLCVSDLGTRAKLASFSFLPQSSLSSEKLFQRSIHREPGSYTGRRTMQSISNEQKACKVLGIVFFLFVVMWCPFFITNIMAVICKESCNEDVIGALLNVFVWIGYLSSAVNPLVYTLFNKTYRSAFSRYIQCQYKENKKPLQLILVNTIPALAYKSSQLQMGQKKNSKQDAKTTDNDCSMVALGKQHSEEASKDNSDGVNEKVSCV

[11] = target: T4, Progesterone receptor (Homo sapiens, UniProt P06401); assay type: functional
T4 sequence (P06401 whole entry): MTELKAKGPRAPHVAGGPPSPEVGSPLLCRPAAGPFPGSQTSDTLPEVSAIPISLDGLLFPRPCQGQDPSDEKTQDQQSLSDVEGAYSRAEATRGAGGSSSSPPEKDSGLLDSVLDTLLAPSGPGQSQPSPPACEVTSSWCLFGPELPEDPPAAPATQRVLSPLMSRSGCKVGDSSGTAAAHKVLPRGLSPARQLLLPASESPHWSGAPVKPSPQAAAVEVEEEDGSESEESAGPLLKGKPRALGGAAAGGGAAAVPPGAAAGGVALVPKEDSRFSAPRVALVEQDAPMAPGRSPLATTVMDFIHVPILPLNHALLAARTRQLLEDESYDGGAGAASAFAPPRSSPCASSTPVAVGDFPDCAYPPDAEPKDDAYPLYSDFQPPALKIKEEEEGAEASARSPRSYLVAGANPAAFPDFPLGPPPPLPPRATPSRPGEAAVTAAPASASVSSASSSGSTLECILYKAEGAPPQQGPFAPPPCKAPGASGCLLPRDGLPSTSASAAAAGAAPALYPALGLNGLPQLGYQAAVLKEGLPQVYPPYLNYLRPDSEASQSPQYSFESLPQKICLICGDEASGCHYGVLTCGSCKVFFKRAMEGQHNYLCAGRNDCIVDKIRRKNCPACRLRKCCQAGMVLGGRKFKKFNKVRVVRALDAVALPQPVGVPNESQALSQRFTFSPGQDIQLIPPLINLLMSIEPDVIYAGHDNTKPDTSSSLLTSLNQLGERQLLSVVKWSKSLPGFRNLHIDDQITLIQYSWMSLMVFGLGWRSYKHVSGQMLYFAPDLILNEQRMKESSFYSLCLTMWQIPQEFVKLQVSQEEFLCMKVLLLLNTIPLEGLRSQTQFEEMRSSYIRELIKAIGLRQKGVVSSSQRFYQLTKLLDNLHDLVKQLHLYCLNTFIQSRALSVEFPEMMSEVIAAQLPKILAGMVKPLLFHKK

[12] = target: Growth hormone secretagogue receptor type 1 (Homo sapiens, UniProt Q92847)
Chain of Growth hormone secretagogue receptor type 1 (Q92847 whole entry): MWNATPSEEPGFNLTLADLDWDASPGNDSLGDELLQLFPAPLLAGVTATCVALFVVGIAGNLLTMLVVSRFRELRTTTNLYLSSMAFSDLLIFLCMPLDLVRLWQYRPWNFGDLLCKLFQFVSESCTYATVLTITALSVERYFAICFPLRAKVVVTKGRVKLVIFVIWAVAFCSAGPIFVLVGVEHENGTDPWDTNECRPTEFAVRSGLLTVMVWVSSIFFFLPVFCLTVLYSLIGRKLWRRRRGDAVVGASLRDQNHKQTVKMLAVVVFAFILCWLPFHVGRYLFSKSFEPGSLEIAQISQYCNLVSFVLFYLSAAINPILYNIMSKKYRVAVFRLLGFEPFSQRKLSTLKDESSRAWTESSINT

[13] = target: Motilin receptor (Homo sapiens, UniProt O43193)
Chain of Motilin receptor (O43193 whole entry): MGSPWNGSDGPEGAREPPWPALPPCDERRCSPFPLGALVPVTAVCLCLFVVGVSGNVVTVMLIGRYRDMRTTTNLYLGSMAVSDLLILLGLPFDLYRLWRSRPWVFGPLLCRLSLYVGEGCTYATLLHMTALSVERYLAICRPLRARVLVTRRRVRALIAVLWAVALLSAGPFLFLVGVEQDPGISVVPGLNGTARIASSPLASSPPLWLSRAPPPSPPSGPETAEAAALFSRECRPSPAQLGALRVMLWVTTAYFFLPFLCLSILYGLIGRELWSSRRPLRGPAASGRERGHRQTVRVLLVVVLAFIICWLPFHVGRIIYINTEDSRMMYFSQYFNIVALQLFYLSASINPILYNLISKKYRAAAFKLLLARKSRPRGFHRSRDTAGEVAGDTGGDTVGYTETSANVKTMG

[14] = target: Histamine H3 receptor (Homo sapiens, UniProt Q9Y5N1)
Chain of Histamine H3 receptor (Q9Y5N1 whole entry): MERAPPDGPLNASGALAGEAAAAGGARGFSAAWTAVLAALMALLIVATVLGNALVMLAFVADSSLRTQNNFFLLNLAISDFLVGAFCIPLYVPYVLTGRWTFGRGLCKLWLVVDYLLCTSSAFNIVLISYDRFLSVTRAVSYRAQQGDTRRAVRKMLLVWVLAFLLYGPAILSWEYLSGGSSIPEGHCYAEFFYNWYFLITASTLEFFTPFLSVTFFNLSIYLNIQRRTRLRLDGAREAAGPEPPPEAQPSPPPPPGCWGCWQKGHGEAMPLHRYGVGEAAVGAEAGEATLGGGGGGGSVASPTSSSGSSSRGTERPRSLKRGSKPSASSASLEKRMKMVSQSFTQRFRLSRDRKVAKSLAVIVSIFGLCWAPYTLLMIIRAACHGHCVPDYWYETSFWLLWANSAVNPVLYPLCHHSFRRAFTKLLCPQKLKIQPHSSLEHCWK

[15] = target: T5, Cholecystokinin receptor type A (Homo sapiens, UniProt P32238)
T5 sequence (P32238 whole entry): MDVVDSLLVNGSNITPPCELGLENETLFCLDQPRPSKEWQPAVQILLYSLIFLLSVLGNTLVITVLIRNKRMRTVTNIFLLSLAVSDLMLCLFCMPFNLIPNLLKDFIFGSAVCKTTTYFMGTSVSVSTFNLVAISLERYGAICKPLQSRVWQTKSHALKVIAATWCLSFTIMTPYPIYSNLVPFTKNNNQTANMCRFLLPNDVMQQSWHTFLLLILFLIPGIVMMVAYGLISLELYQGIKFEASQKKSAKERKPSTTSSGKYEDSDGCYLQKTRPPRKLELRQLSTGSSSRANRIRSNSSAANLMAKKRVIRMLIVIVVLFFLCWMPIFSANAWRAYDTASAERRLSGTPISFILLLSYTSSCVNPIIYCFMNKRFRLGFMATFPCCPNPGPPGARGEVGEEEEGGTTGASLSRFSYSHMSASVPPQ

[16] = target: Vasopressin V2 receptor (Homo sapiens, UniProt P30518)
Chain of Vasopressin V2 receptor (P30518 whole entry): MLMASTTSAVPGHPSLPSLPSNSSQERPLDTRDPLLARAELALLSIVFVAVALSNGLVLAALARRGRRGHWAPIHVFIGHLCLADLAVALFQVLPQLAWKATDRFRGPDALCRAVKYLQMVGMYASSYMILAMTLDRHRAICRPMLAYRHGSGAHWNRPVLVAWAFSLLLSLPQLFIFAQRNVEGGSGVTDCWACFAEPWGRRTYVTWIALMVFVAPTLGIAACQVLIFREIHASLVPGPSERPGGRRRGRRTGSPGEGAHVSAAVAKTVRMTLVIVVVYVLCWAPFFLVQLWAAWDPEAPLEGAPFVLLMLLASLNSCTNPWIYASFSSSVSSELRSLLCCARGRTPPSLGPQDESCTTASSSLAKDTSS

[17] = target: Melanocortin receptor 4 (Homo sapiens, UniProt P32245)
Chain of Melanocortin receptor 4 (P32245 whole entry): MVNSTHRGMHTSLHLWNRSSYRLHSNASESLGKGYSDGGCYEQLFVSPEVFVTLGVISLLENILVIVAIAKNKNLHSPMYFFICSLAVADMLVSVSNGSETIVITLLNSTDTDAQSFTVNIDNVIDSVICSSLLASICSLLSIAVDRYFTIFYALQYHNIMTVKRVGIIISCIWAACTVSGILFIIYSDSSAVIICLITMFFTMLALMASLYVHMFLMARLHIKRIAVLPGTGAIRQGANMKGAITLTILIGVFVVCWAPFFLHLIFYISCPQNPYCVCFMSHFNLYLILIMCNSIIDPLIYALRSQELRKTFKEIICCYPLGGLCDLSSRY

[18] = target: Cannabinoid receptor 1 (Homo sapiens, UniProt P21554)
Chain of Cannabinoid receptor 1 (P21554 whole entry): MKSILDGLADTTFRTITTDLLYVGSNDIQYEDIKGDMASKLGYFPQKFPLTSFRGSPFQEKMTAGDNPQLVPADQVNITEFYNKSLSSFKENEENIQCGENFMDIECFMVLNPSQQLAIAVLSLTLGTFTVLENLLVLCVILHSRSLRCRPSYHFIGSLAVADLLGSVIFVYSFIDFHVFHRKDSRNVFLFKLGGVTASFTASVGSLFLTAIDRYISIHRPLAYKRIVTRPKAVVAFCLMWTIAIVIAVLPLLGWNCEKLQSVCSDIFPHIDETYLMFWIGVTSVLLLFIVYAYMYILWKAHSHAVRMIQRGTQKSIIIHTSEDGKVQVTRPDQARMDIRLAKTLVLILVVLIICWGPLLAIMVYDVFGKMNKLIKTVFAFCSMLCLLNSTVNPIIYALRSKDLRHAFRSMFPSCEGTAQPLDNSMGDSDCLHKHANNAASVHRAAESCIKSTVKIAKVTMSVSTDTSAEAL
Also: assay procedure not described here.

T1 sequence (P35372 whole entry): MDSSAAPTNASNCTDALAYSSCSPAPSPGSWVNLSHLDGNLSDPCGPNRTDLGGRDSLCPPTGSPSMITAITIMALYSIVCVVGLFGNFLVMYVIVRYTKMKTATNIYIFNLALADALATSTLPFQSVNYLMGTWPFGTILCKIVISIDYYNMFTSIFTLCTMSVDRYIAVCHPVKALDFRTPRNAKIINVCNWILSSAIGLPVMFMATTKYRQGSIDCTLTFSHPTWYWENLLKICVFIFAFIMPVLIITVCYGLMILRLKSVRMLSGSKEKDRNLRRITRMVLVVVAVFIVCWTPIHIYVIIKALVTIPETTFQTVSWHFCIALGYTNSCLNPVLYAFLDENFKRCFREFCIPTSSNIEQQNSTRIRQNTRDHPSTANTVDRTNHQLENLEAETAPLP

SMILES | AC50 [4] [µM] | AC50 [6] [µM] | AC50 [7] [µM] | AC50 [8] [µM] | AC50 [9] [µM] | AC50 [10] [µM] | also measured
O=C(O)c1cccc(-c2noc(-c3ccccc3F)n2)c1 | > 30 | – | – | – | – | – | AC50 [1]: > 30 µM; AC50 [2]: > 10 µM; AC50 [3]: > 10 µM; AC50 [5]: > 30 µM
CO/N=C(\C(=O)N[C@@H]1C(=O)N2C(C(=O)OCOC(=O)C(C)(C)C)=C(C)CS[C@H]12)c1csc(N)n1 | > 30 | > 30 | > 30 | > 30 | > 30 | > 30 | –
CCS(=O)(=O)N1CC(CC#N)(n2cc(-c3ncnc4[nH]ccc34)cn2)C1 [BARICITINIB] | > 30 | – | – | – | – | – | –
O=C(Cn1ccnc1[N+](=O)[O-])NCc1ccccc1 [BENZNIDAZOLE] | > 30 | > 30 | > 30 | > 30 | > 30 | > 30 | AC50 [3]: > 30 µM; AC50 [11]: > 30 µM; AC50 [12]: > 30 µM; AC50 [13]: > 30 µM; AC50 [14]: > 30 µM; AC50 [15]: > 30 µM; AC50 [16]: > 30 µM; AC50 [5]: > 30 µM
NCc1ccccc1CC(=O)N[C@@H]1C(=O)N2C(C(=O)O)=C(CSc3nnnn3CC(=O)O)CS[C@H]12 [CEFORANIDE] | > 30 | – | – | – | – | – | –
COCC1=C(C(=O)OC(C)OC(=O)OC(C)C)N2C(=O)[C@@H](NC(=O)/C(=N\OC)c3csc(N)n3)[C@H]2SC1 (stereo partly drawn) [CEFPODOXIME PROXETIL] | > 30 | > 30 | > 30 | > 30 | > 30 | > 30 | –
NS(=O)(=O)c1cc2c(cc1Cl)NC(CC1CCCC1)NS2(=O)=O (stereo not drawn) [CYCLOPENTHIAZIDE] | > 30 | > 30 | > 30 | > 30 | > 30 | > 30 | –
Nc1nc(-n2cc(C(=O)O)c(=O)c3cc(F)c(N4CC(O)C4)c(Cl)c32)c(F)cc1F [DELAFLOXACIN] | > 30 | > 30 | > 30 | – | – | – | –
O=C(Nc1ccccc1)OCC(CN1CCCCC1)OC(=O)Nc1ccccc1 (stereo not drawn) [DIPERODON] | – | – | – | > 10 | 4.1 | > 30 | AC50 [17]: > 30 µM; AC50 [18]: > 10 µM; AC50 [1]: 1.8 µM; AC50 [2]: > 10 µM; AC50 [12]: > 30 µM; AC50 [13]: > 10 µM; AC50 [14]: > 10 µM; AC50 [15]: 15 µM; AC50 [16]: > 30 µM; AC50 [5]: > 10 µM
CC1=NN(c2ccccc2)C(=O)C1 [EDARAVONE] | > 30 | > 30 | > 30 | – | – | – | –
N/N=c1/cc2c(n[nH]1)CCN(C(=O)c1ccccc1)C2 [ENDRALAZINE] | > 30 | > 30 | > 30 | > 30 | > 30 | > 30 | –
CC(C)=CCC1C(=O)N(c2ccccc2)N(c2ccccc2)C1=O [FEPRAZONE] | > 30 | > 30 | > 30 | – | – | – | –
CCOC(=O)CC(SP(=S)(OC)OC)C(=O)OCC (stereo not drawn) [MALATHION] | 11.5 | – | – | – | – | – | –
CN1C(=O)N(C)C2C1N(C)C(=O)N2C (stereo not drawn) [MEBICAR] | > 30 | > 30 | > 30 | > 30 | – | > 30 | –
CC(=O)O[C@]1(C(C)=O)CC[C@H]2[C@@H]3C[C@H](C)C4=CC(=O)CC[C@]4(C)[C@H]3CC[C@@]21C [MEDROXYPROGESTERONE ACETATE] | > 30 | – | – | – | – | – | AC50 [3]: > 30 µM; AC50 [12]: > 30 µM; AC50 [13]: > 30 µM; AC50 [14]: > 30 µM; AC50 [15]: > 30 µM; AC50 [16]: > 30 µM
Cn1cc[nH]c1=S [METHIMAZOLE] | > 30 | > 30 | > 30 | – | – | – | –
NC(=O)c1cccc2cn(-c3ccc([C@@H]4CCCNC4)cc3)nc12 [NIRAPARIB] | > 30 | 29.4 | > 30 | – | – | – | –
Nc1ccc(/N=N/c2ccccc2)c(N)n1 [PHENAZOPYRIDINE] | 13.1 | 23.4 | > 30 | 3.6 | – | > 30 | –
O=C(O)CCn1c2c(c3ccccc31)C[C@H](NS(=O)(=O)c1ccc(F)cc1)CC2 [RAMATROBAN] | > 30 | – | – | > 30 | > 30 | > 10 | AC50 [17]: > 30 µM; AC50 [18]: > 10 µM; AC50 [1]: > 30 µM; AC50 [2]: > 30 µM; AC50 [3]: > 30 µM; AC50 [11]: > 30 µM; AC50 [12]: > 30 µM; AC50 [13]: > 30 µM; AC50 [14]: > 30 µM; AC50 [15]: 24.8 µM; AC50 [16]: > 30 µM; AC50 [5]: > 30 µM
COc1cc(NCc2ccc3nc(N)nc(N)c3c2C)cc(OC)c1OC [TRIMETREXATE] | > 30 | – | – | – | – | – | –
CC(=O)N[C@H]1[C@H]([C@H](O)[C@H](O)CO)OC(C(=O)O)=C[C@@H]1N=C(N)N [ZANAMIVIR] | – | – | – | > 30 | > 30 | > 30 | AC50 [17]: > 30 µM; AC50 [18]: > 30 µM; AC50 [1]: > 30 µM; AC50 [2]: > 30 µM; AC50 [3]: > 30 µM; AC50 [11]: > 30 µM; AC50 [12]: > 30 µM; AC50 [13]: > 30 µM; AC50 [14]: > 30 µM; AC50 [15]: > 30 µM; AC50 [16]: > 30 µM; AC50 [5]: > 30 µM
